Converted amounts (≈) assume the structure as drawn.
Columns and labels:
S. aureus ATCC 10390 [1] = test: MIC determination with authentic compounds resynthesized in solution; type: cell-based, Staphylococcus aureus; conditions: Staphylococcus aureus, ATCC10390
Description: (§1) For estimated MIC determination, DMSO was added to the dried compound residue obtained from a single spot to afford ca. 100 μL of a 2 mM stock solution. Aliquots (5 μL) of these solutions were added to a 96-well plate, followed by 195 μL of diluted S. aureus 10390 (10^6 CFUs/mL) to yield ca. 50 μM final concentrations. The plates were swirled for 1 h to ensure compound dissolution, incubated for 12 h at 37° C., and the absorbance at 595 nm was recorded using a plate reader. […] Actual MIC values were determined for lead compounds resynthesized in solution using an analogous procedure with solutions of known concentration (see).
(§2) Dose response growth inhibition curves were determined for each active compound (resynthesized in solution) against S. aureus 10390 (SA) and methicillin-resistant S. aureus 33591 (MRSA). […] MIC assays were performed in quadruplicate.

[2] = system: Methicillin-resistant S. aureus ATCC 33591 (MRSA); test: as above; type: cell-based; conditions: Staphylococcus aureus; Table 3; authentic sample, only trans isomers of chalcones; error reflects step size in the serial dilutions
Description: as §1, §2

S. aureus ATCC 10390 [3] = test: Estimated MIC, solution-phase microdilution absorbance assay with crude macroarray spot stock solutions; type: cell-based, Staphylococcus aureus; conditions: Staphylococcus aureus, ATCC10390, 12 h
Description: Spots from a new 69 member chalcone macroarray as well as the three heterocyclic macroarrays prepared earlier were punched out, cleaved, and eluted with acetonitrile. The resulting solutions were concentrated to a residue that was taken up in DMSO to form 2 mM stock solutions.
From the stock solutions, microdilution assays in a 96 well plate starting at 50 μM were performed in quadruplicate. Each well contained 5 μL of the stock solution as well as 195 μL of a S. aureus culture. The turbidity of each well was measured after incubating 12 hours using a standard plate reader. Active compounds can be further diluted and the assay repeated.
To acquire more quantitative antibacterial activity data about our compounds and verify our on-support assay results, we performed solution-phase absorbance assays that provided estimates of the minimum inhibitory concentration (MIC) of each macroarray member against S. aureus. Stock solutions (ca. 2 mM) were generated by cleaving and eluting 198 individual compounds from chalcone (3) and heterocyclic macroarrays (5, 7, and 8). […] The good overall purities of the crude macroarray compounds allowed for reasonable estimations of MICs.
as §1
Preparation of spot samples and controls. An aliquot of DMSO (ca. 100 μL depending on the loading of the parent hydroxyacetophenone) was added to the dried compound residue obtained after TFA cleavage and elution from a single spot. This afforded a 2.0 mM “spot stock” solution for each spot. A small aliquot of each “spot stock” solution was saved for subsequent LC-MS analysis.
For estimated MIC screens, 5.0 μL portions of the “spot stock” solutions were added to the appropriate wells in a sterile, polystyrene 96-well plate to yield ca. 50 μM solutions (dependent on the initial loading of hydroxyacetopheneone and compound purity). To the positive and negative control wells, 5.0 μL of DMSO were added (positive controls contained bacteria but no compound, while negative controls had neither compound nor bacteria). All estimated MIC assays were performed in quadruplicate. Note: the MIC value is defined as the lowest concentration where no bacterial growth occurs.
Representative estimated MIC assay procedure. This assay procedure is based in part on the method reported by Strøm et al.^xiii A 400 μL portion of overnight S. aureus 10390 culture was diluted with 100 mL of sterile LB broth to give ca. 10^6 CFUs per mL. Aliquots (195 μL) of this solution were added to all of the wells in a sterile 96-well plate (except for the negative control wells; 195 μL of sterile LB broth were added to these wells). The plates were placed on an orbital shaker table and gently swirled for 1 h to ensure compound dissolution, and then incubated (without shaking) for 12 h at 37° C. The absorbance at 595 nm was recorded using a plate reader.
The original “spot stock” solutions of these compounds were diluted with DMSO to give ca. 25 and 13 μM final concentrations and tested for inhibitory activities using the procedure described above.

K. pneumoniae = test: Agar overlay TTC assay, compound overlays; type: cell-based, Klebsiella pneumoniae; conditions: 30 nanomole aliquots of purified compound on filter paper
[4] = system: B. subtilis subsp. spizizenii ATCC 6633; test: MIC determination, species selectivity; type: cell-based; conditions: Bacillus subtilis, ATCC6633; authentic sample, only trans isomers of chalcones; error reflects step size
Description: (§3) Each compound from Table 3 was tested for inhibitory activity at 2.5, 5, 7.5, 10, 15, 20, 25, and 30 μM in the susceptible overlaid strains: B. subtilis ATCC 6633, S. epidermidis ATCC 12228, and K. pneumoniae ATCC 4352. MIC assays were run in quadruplicate as described above (with shaking).

K. pneumoniae ATCC 4352 = test: MIC determination, species selectivity; type: cell-based; conditions: Klebsiella pneumoniae, ATCC4352; authentic sample, only trans isomers of chalcones; error reflects step size
Description: as §3

[5] = system: S. epidermidis ATCC 12228; test: MIC determination, species selectivity; type: cell-based; conditions: Staphylococcus epidermidis, ATCC12228; authentic sample, only trans isomers of chalcones; error reflects step size
Description: as §3

S. aureus ATCC 10390 [6] = test: Kirby-Bauer disk diffusion assay on compound spots from cleaved macroarray; type: cell-based, Staphylococcus aureus; conditions: loadings 30 μg/spot, 18 h incubation
Description: While the heterocyclic libraries were being synthesized, the chalcone macroarrays were analyzed using various direct assay techniques such as the Kirby-Bauer disk diffusion assay (FIG. 2E). Bauer, A. W.; Kirby, […].; Turck, M. Technical Bulletin of the Registry of Medical Technologists 1966, 36, 49-52. For this assay, the macroarray members are punched out from the membrane, cleaved from the support with TFA vapor, neutralized with ammonia vapor, and then placed on an agar bed inoculated with S. aureus. After incubating overnight, different diameters of zones of inhibition are measured as a factor of potency as well as solubility in the medium. Ammonia vapor neutralization was key in the disk diffusion assay, otherwise residual TFA vapor created a false positive signature. However, in this method, macroarrays have to be made in triplicate one for a replicate and one for compound characterization. We first evaluated test chalcone macroarrays (3) in antibacterial assays against S. aureus. Because the macroarrays were prepared on cellulose filter paper, we had convenient access to the compounds in disk form for standard disk diffusion assays. Compound spots were punched out of the macroarrays, subjected to vapor phase cleavage with acid (TFA), and neutralized (NH3) to afford disks containing ca. 30 μg of adsorbed compound [8]. These disks were manually placed on lawns of S. aureus, and zones of inhibition were measured after an 18 h incubation period. […] However, this antibacterial assay format had drawbacks: (1) the entire sample of compound was consumed during the assay, and thus replicate arrays needed to be synthesized to confirm activity, and (2) manipulating large numbers of compound disks was relatively labor intensive. Compound spots were cleaved with TFA and neutralized with NH3 as described herein. […] Compound spots were placed onto the agar, the plate was incubated at 37° C. for 18 h, and the diameters of the zones of inhibition were measured. […] Compound spots were subjected to the TFA cleavage conditions described above. The spots were next subjected to NH3 vapor to neutralize any remaining TFA. […] Vials containing the spots (or intact macroarrays) were placed inside a small evaporating dish, and this was placed into the NH4OH solution. The Pyrex dish was covered, and NH3 vapor was allowed to slowly diffuse into the vials. After 1 h, the vials were removed from the NH3 chamber, and the spots were allowed to stand open in a fume hood for at least 15 min to vent prior to analysis in the following assays. This afforded dry, paper disks containing adsorbed compound. […] The plates were removed, and the diameters of the zones of inhibition were measured in mm using a ruler (see FIG. 1A).

[7] = Table 2, authentic sample synthesized according to standard techniques, read-out: observed MIC
[8] = Table 3, authentic sample, only trans isomers of chalcones, error reflects step size in the serial dilutions, read-out: S. aureus MIC
[9] = Table 2, serial dilution of stock solutions obtained by SPOT-synthesis, read-out: estimated MIC range
[10] = Table 3, serial dilution of spot stock solutions of crude macroarray compounds, read-out: S. aureus Estimated MIC range

| SMILES | MIC (S. aureus ATCC 10390 [1]; [7]) | MIC (S. aureus ATCC 10390 [1]; [8]) | MIC [2] | MIC (S. aureus ATCC 10390 [3]; [9]) | MIC (S. aureus ATCC 10390 [3]; [10]) | susceptibility in agar overlay TTC assay (K. pneumoniae) | MIC [4] | MIC (K. pneumoniae ATCC 4352) | MIC [5] | Zones of inhibition (S. aureus ATCC 10390 [6]) |
| --- | --- | --- | --- | --- | --- | --- | --- | --- | --- | --- |
| O=C(/C=C/c1ccc(Cl)cc1Cl)c1ccc(O)cc1 [Compound 4At, 2,4-dichloro-4′-hydroxychalcone] | 18.8 ± 1.2 µM (≈ 5.51 µg/mL) | 21.2 ± 1.2 µM (≈ 6.21 µg/mL) | 18.7 ± 1.2 µM (≈ 5.48 µg/mL) | 25 to 50 µM (≈ 7.33 to 14.7 µg/mL) | 25 to 50 µM (≈ 7.33 to 14.7 µg/mL) | weakly susceptible | 27.5 ± 2.5 µM (≈ 8.06 µg/mL) | > 250 µM | 27.5 ± 2.5 µM (≈ 8.06 µg/mL) | – |
| O=C(/C=C/c1cccc(Br)c1)c1cccc(O)c1 [Compound 4Be, 3-bromo-3′-hydroxychalcone] | 24 ± 2 µM (≈ 7.28 µg/mL) | 21 ± 1 µM (≈ 6.37 µg/mL) | 20 ± 1 µM (≈ 6.06 µg/mL) | 25 to 50 µM (≈ 7.58 to 15.2 µg/mL) | 25 to 50 µM (≈ 7.58 to 15.2 µg/mL) | weakly susceptible | 22.5 ± 2.5 µM (≈ 6.82 µg/mL) | 40 ± 10 µM (≈ 12.1 µg/mL) | 22.5 ± 2.5 µM (≈ 6.82 µg/mL) | – |

The next lines start with results.

| MIC (S. aureus ATCC 10390 [1]; [7]) | MIC (S. aureus ATCC 10390 [1]; [8]) | MIC [2] | SMILES | MIC (S. aureus ATCC 10390 [3]; [9]) | MIC (S. aureus ATCC 10390 [3]; [10]) | susceptibility in agar overlay TTC assay (K. pneumoniae) | MIC [4] | MIC (K. pneumoniae ATCC 4352) | MIC [5] | Zones of inhibition (S. aureus ATCC 10390 [6]) |
| --- | --- | --- | --- | --- | --- | --- | --- | --- | --- | --- |
| 0.75 ± 0.12 µM (≈ 0.249 µg/mL) | 0.6 ± 0.1 µM (≈ 0.199 µg/mL) | 0.9 ± 0.1 µM (≈ 0.298 µg/mL) | O=C(O)c1cn(C2CC2)c2cc(N3CCNCC3)c(F)cc2c1=O [Ciprofloxacin, ciprofloxacin, reference compound] | – | – | – | – | – | – | – |
| > 250 µM | > 250 µM | > 250 µM | COc1cc(C(=O)/C=C/c2ccc(Br)cc2)ccc1O [Compound 4Cf, 4-bromo-4′-hydroxy-3′-methoxy-chalcone] | > 50 µM | > 50 µM | – | – | – | – | < 1 mm |
| 8.7 ± 1.3 µM (≈ 3.09 µg/mL) | 10 ± 0.5 µM (≈ 3.55 µg/mL) | 10 ± 0.5 µM (≈ 3.55 µg/mL) | Cc1nc(-c2ccc(O)cc2)cc(-c2cccc(Cl)c2Cl)c1C#N [Compound 6Al, 4-(2,3-dichlorophenyl)-6-(4-hydroxyphenyl)-2-methyl-3-cyanopyridine] | 12.5 to 25 µM (≈ 4.44 to 8.88 µg/mL) | 12.5 to 25 µM (≈ 4.44 to 8.88 µg/mL) | – | 6.3 ± 1.2 µM (≈ 2.24 µg/mL) | – | 12.5 ± 2.5 µM (≈ 4.44 µg/mL) | – |
